Ends that are not written are not given here.
test system: not given; assay: not given; settings: given by IV infusion; cited from earlier work

| Substance | half-life |
| --- | --- |
| infliximab: chimeric IgG1κ monoclonal antibody that blocks the action of TNF-alpha | approximately eight |

test system: infliximab; assay: Infliximab affinity peptide ELISA, concentration dependent binding; settings: biotinylated synthesized peptides, 0.0028-500 micromolar, FIG. 5
Description: 96-well black ELISA plates were coated with goat anti-human Fc (Jackson Immunoresearch Laboratories, Inc., West Grove, Pa., cat. #109-006-098) at a concentration of 5 micrograms/mL in PBS. Plates were incubated overnight at 4° C. Plates were washed 3 times with TBST using a plate washer. […] To all other wells, 100 microliters of PBS was introduced. The plates were again washed 3 times with TBST using the plate washer. The wells were then blocked with 250 microliters of a 3% dehydrated milk suspension in TBST and allowed to sit at room temperature for a minimum of 1 hour. Biotinylated, chemically synthesized peptides having SEQ ID NO: 2, SEQ ID NO: 3, SEQ ID NO: 10, and SEQ ID NO: 13 were prepared using standard, automated Fluorenylmethyloxycarbonyl (Fmoc) solid phase peptide synthesis procedures. Each peptide solution for the assay was prepared from a 500 micromolar stock solution. The stock solution was serially diluted in assay buffer resulting in peptide concentrations of 500, 166.6, 55.5, 18.5, 6.2, 2.1, 0.69, 0.23, 0.076, 0.025, 0.0085 and 0.0028 micromolar.
After blocking, the ELISA plate was washed 3 times with TBST and 100 microliters of the serially diluted peptides were added to the corresponding wells of the ELISA plate and allowed to sit at room temperature for a minimum of 1 hour. […] The luminescence was read using a luminometer set with a gain of 150.

| Substance | rank according to concentration-dependent binding to infliximab |
| --- | --- |
| SEQ ID NO: 3: infliximab affinity peptide of FIG. 1; also chemically synthesized, biotinylated (AGTYCHPDQLRNLCPV; cysteine pairing not given here; also: biotinylated, position not given here) | SEQ ID NO: 2>SEQ ID NO: 10>SEQ ID NO: 3>SEQ ID NO: 13 |
| SEQ ID NO: 13: infliximab affinity peptide of FIG. 1; also chemically synthesized, biotinylated (AGPPCIVTQLSDLSFCAP; cysteine pairing not given here; also: biotinylated, position not given here) | SEQ ID NO: 2>SEQ ID NO: 10>SEQ ID NO: 3>SEQ ID NO: 13 |

test system: WEHI-13VAR mouse fibroblasts; assay: In vitro bioactivity of infliximab in the presence of affinity peptides, MTT cell viability with TNF-α; format: cell-based; settings: peptide 66 nanomolar, infliximab 0-66 nanomolar, overnight, FIG. 7
Description: In this experiment, we determined if the affinity peptides would interfere with the binding of tumor necrosis factor alpha (TNF-α) using WEHI-13VAR mouse fibroblasts.
WEHI-13VAR cells (mouse fibroblast cell line) were plated out in wells of a 96 well plate two hours prior to running the experiment at 50000 cells per well. […] After overnight incubation, cell viability was assessed using an MTT cell viability assay (R&D Systems, Inc., Minneapolis, Minn., cat #4890-050-K) following the product insert.

| Substance | effect on the viability of WEHI-13VAR mouse fibroblasts in the presence of infliximab |
| --- | --- |
| SEQ ID NO: 13: infliximab affinity peptide of FIG. 1; also chemically synthesized, biotinylated (AGPPCIVTQLSDLSFCAP; cysteine pairing not given here; also: biotinylated, position not given here) | minimal effect |

test system: infliximab; assay: Confirmatory phage ELISA, binding of phage-displayed peptides to infliximab; settings: FIG. 3, N value of 2
Description: 96-well black ELISA plates were coated with streptavidin (Columns 1 through 4), mAb competitor (Columns 5 and 6), hIgG (Columns 7 and 8), human serum albumin (Columns 9 and 10) and collagen (Columns 11 and 12), at a concentration of 5 micrograms/mL in PBS. Plates were incubated overnight at 4° C. Plates were washed 3 times with TBST using a plate washer. To the streptavidin-coated wells in columns 3 and 4, 100 microliters of a 5 micrograms/mL solution of biotinylated-infliximab was introduced and allowed to sit at room temperature for 30 minutes. To all other wells, 100 microliters of PBS was introduced. The plates were again washed 3 times with TBST using the plate washer. The wells were then blocked with 250 microliters of a 3% dehydrated milk suspension in TBST and allowed to sit at room temperature for a minimum of 1 hour. Using phage concentrations determined by the phage titrations, dilutions of the phage stock solutions were performed in a separate 96-well plate to result in phage concentrations of 10^10, 10^9, 10^8, 10^7, 10^6 and 10^5 phage/well. After blocking, the ELISA plate was washed 3 times with TBST and 100 microliters of the phage dilutions were introduced to the respective ELISA plates and allowed to sit at room temperature for a minimum of 1 hour. The ELISA plate was again washed 3 times with TBST using the plate washer and 100 microliters of an horseradish peroxidase (HRP)-conjugated Anti-M13 Phage Mab (1:5000 dilution in PBS) was introduced to each well. The plates were allowed to sit at room temperature for 1 hour after which time the plates were washed 3 times with TBST. Next, a peroxidase-based (POD) HRP-substrate was introduced to each well. The luminescence was read using a luminometer set with a gain of 150.

| Substance | binding to infliximab (phage ELISA, relative luminescence) |
| --- | --- |
| SEQ ID NO: 4: infliximab affinity peptide of FIG. 1, identified by pIX phage display (AGVTCRMTEYGPMCPT) | confirms the binding |
| SEQ ID NO: 3: infliximab affinity peptide of FIG. 1; also chemically synthesized, biotinylated (AGTYCHPDQLRNLCPV; cysteine pairing not given here; also: biotinylated, position not given here) | confirms the binding |
| SEQ ID NO: 18: infliximab affinity peptide of FIG. 1; wild type for site-directed mutagenesis (AG-XXXX-PWPPTAES-XXXX mutants) (AGLLCEPWPPTAESICRS) | confirms the binding |
| SEQ ID NO: 7: infliximab affinity peptide of FIG. 1, identified by pIX phage display (AGTHCSYVLGRIECLP) | confirms the binding |
| SEQ ID NO: 14: infliximab affinity peptide of FIG. 1, identified by pIX phage display (AGARCAPAFDANWLICSN) | confirms the binding |
| SEQ ID NO: 16: infliximab affinity peptide of FIG. 1, identified by pIX phage display (AGVVCATPEWTWDPACAT) | confirms the binding |
| SEQ ID NO: 21: infliximab affinity peptide of FIG. 1, identified by pIX phage display (AGPCISDYFDPCH) | confirms the binding |
| SEQ ID NO: 22: infliximab affinity peptide of FIG. 1, identified by pIX phage display (AGLCPELPHC) | confirms the binding |
| SEQ ID NO: 9: infliximab affinity peptide of FIG. 1, identified by pIX phage display (AGVACHSTGTNIYTCTY) | confirms the binding |
| SEQ ID NO: 11: infliximab affinity peptide of FIG. 1, identified by pIX phage display (AGSLCHTVGSGIYNCTK) | confirms the binding |
| SEQ ID NO: 13: infliximab affinity peptide of FIG. 1; also chemically synthesized, biotinylated (AGPPCIVTQLSDLSFCAP; cysteine pairing not given here; also: biotinylated, position not given here) | confirms the binding |
| SEQ ID NO: 12: infliximab affinity peptide of FIG. 1, identified by pIX phage display (AGIQCHDVGAGVVTCTY) | confirms the binding |
| SEQ ID NO: 19: infliximab affinity peptide of FIG. 1, identified by pIX phage display (AGPPYTVFVHL) | confirms the binding |
| SEQ ID NO: 6: infliximab affinity peptide of FIG. 1, identified by pIX phage display (AGEICYWHDTDWVCTE) | confirms the binding |
| SEQ ID NO: 17: infliximab affinity peptide of FIG. 1, identified by pIX phage display (AGLLCAPSLDPDYILCDQ) | confirms the binding |
| SEQ ID NO: 1: infliximab affinity peptide of FIG. 1, identified by pIX phage display (AGWTVAYVPPGPSYATS) | confirms the binding |
| SEQ ID NO: 5: infliximab affinity peptide of FIG. 1, identified by pIX phage display (AGNRCAYAAGTIQCFP) | confirms the binding |
| SEQ ID NO: 8: infliximab affinity peptide of FIG. 1, identified by pIX phage display (AGNYCHPDQLSQFCAR) | confirms the binding |
| SEQ ID NO: 20: infliximab affinity peptide of FIG. 1, identified by pIX phage display (AGYCISDYIDPCH) | confirms the binding |
| SEQ ID NO: 23: infliximab affinity peptide of FIG. 1, identified by pIX phage display (AGPCPELPHCTY) | confirms the binding |
| SEQ ID NO: 15: infliximab affinity peptide of FIG. 1, identified by pIX phage display (AGPPCAAAMAQAQLACTH) | confirms the binding |

— US8822423B2 (Janssen Biotech, Inc., priority 2012, dated 2014)
